Assay results as given in patent US4101669A (priority 1977, dated 1978).

Key:
[1] = Example 1: stability of active ingredient at 300 ppm in severe test waters, assay after 4 hours at room temperature; format: physicochemical; conditions: for pH: after 4 hours at room temperature; for assay (as percent of original): 4 hours, room temperature
Experimental: The stability of the active ingredient formulated as above is compared with that of the pure technical material at 300 ppm in:
(a) a basic, soda-ash softened water of initial pH 10.2 with 0.66 × 10^-3 N basicity, primarily as carbonate, and
(b) a strong "sodium bicarbonate" water (prepared to match a Montana well water) with pH 8.8 and 13 × 10^-3 N basicity.
After 4 hours at room temperature in these severe test waters, the following pH readings and assays (as percent of original) were obtained.

[2] = Example 2: stability of substituted acetamide in mixtures with commercial fungicides, 4 hour assay and 1-4 hour pH range; format: physicochemical; conditions: particularly in basic water
Experimental: is prepared by blending and hammer milling.
(b) 2-cyano-N-ethylcarbamoyl-2-methoxyiminoacetamide is finely ground.
The materials above are mixed with the following commercial fungicides in a ratio to provide 1 part of active compound of (a) or (b) with the indicated parts of commodity listed:
The mixtures are then added to distilled water in one case and 4.7 × 10^-3 N sodium bicarbonate (chosen to represent rather alkaline water) in the other case, at a rate to provide about 150 ppm of substituted acetamide. After 4 hours, the suspensions are assayed to determine the present substituted acetamide remaining. The pH during the 1-4 hour period is also recorded.

CCNC(=O)NC(=O)C(C#N)=NOC [pure compound, 2-cyano-N-ethylcarbamoyl-2-methoxyiminoacetamide]
pH ([1]; water a)): 7.7
assay (as percent of original) ([1]; water a): soda-ash softened, initial pH 10.2, 0.66 × 10^-3 N basicity): 43% of original
pH ([1]; water b)): 8.2
assay (as percent of original) ([1]; water b): strong sodium bicarbonate water, pH 8.8, 13 × 10^-3 N basicity): 16% of original
effect of acidulant on stability in mixtures with commercial fungicides [2]: the acidulant improves stability
